We go through one compound from patent US20240358693A1, “METHODS OF TREATING PAIN” (Aisa Pharma, Inc., priority 2023, published 2024).

The assay deals with participants with SSc-RP. Description: Scleroderma Health Assessment Questionnaire (SHAQ): disability indices and visual analog scales. The settings on record: minus = improvement, two weeks of treatment. Type of assay: in vivo, human. The text has this:
The standard, validated, patient reported outcome measures tool for SSc patients, the Scleroderma Health Assessment Questionnaire (SHAQ), will be used to assess the participant qualify of life. Details are attached in the Appendix. The participant quality of life will be scored, and a disability index calculated for each questionnaire completed by the patient at Screening and each in-clinic visit. The absolute change in participant quality of life from baseline to the end of each dosing period will be calculated similar to frequency data as before.
The SHAQ includes a Raynaud's VAS, which will be reported at screening and each in-clinic visit. The absolute change in Raynaud-VAS, assessed by the participants response to the SHAQ question ‘In the past 7 days, how much have your Raynaud's interfered with your daily activities?’ at baseline and the end of each dosing period will be calculated similar to frequency data as before.
The SHAQ is used to calculate a Disability Index to assess the participant qualify of life. The eight categories assessed by the Disability Index are 1) dressing and grooming, 2) arising, 3) eating, 4) walking, 5) hygiene, 6) reach, 7) grip, and 8) common daily activities. For each of these categories, patients report the amount of difficulty they have in performing two or three specific activities.
There are four possible responses for the Disability Index questions: • Without any difficulty=0 • With some difficulty=1 • With much difficulty=2 • Unable to do=3. • The highest score reported by the patient for any component question of the eight categories determines the score for that category. • If a component question is left blank or the response is too ambiguous to assign a score, then the score for that category is determined by the remaining completed question(s). • If all component questions are blank or if more than one answer is given, then follow up with the respondent is required. • If the respondent's mark is between the response columns, then move it to the closest one. If it's directly between the two, move it to the higher one.
Each of the disability items on the SHAQ has a companion aids/devices variable that is used to record what type(s) of assistance, if any, the participant uses for his/her usual activities. These variables (see below) are coded as follows: • 0=No assistance is needed. • 1=A special device is used by the patient in his/her usual activities. • 2=The patient usually needs help from another person. • 3=The patient usually needs BOTH a special device AND help from another person.
The scoring variables and scoring rules permit the computation of two disability indices, the Standard Disability Index and the Alternative Disability Index.
This question results in a new set of category scores that are computed by adjusting the score for each category, if necessary, based on the patient's use of an aid or device or assistance for that category. If either devices and/or help from another person are checked for a category, the score is set to “2”, unless the score is already “3” (i.e., scores of “0” or “1” are increased to “2”). For example, if the highest score for the dressing category is “1”, and the patient says they use a device for dressing, the computed category score would be “2”. The sum of the computed categories scores is then calculated and divided by the number of categories answered. This gives a score in the 0 to 3 range.
The aid and device variables are not used to calculate the alternative disability index; it is calculated by adding the scores for each of the categories and dividing by the number of categories answered. This gives a score in the 0 to 3 range.
The standard, validated, patient reported outcome measures tool for SSc patients, the SHAQ, was collected at the time points specified in the study schedules (FIG. 2 and FIGS. 4A and 4B) to assess the participant's quality of life. The SHAQ included a Raynaud's VAS that will also be reported separately.

The mark [1] stands for this setting: Cilnidipine 20 mg n = 3, with Tadalafil 5 mg n = 4.

As for `COCCOC(=O)C1=C(C)NC(C)=C(C(=O)OC/C=C/c2ccccc2)C1c1cccc([N+](=O)[O-])c1` (centres unmarked) [Cilnidipine 20 mg], under setting [1], the “SHAQ Alternative Disability Index, mean % change” value is given as −42%; the “SHAQ Breathing Difficulty, mean % change” value is given as −73%; the “SHAQ Burden of Fingers Ulcers, mean % change” value is listed as −17%; the “SHAQ Overall Scleroderma, mean % change” value is recorded as −63%. Under setting [1], the “SHAQ Pain, mean % change” value is given as −53%; the “SHAQ Raynaud’s Difficulty, mean % change” value is recorded as −49%; the “SHAQ Standard Disability Index, mean % change” value was −50%. For the same compound, the “SHAQ Intestinal Difficulty, mean % change (pooled, n = 7)” value (pooled, n = 7) is −45% (pooled,.
